We go through six compounds from patent publication US20090156668A1, “Ginkgolide Compounds, Compositions, And Extracts, And Uses Thereof” (priority 2004, published 2009).

The target of series [1] is platelet activating factor (Homo sapiens, UniProt P25105). As to conditions: analogs obtained as racemates, cited from earlier work.
The test system of series [2] is beta-amyloid (1-42)-induced inhibition of long-term potentiation in the CA1 region of hippocampal slices. It counts as cell-based, mice.
For series [3] the following is noted: read-out: anti-PAF IC50; analogs obtained as racemates; cited from earlier work.
The test system of series [4] is rat hippocampal neuron cultures. Description: neuroprotection assay: beta amyloid-induced neuronal cell death, viable cells by cell nuclei counting. As to conditions: for number of viable cells (control = 100%): ginkgolide 1 μM + oligomeric amyloid beta, mean±SEM of 3 experiments.

A word on the IC50: it is the concentration needed to halve the response being measured.

Where two headings read alike, the source gives them in different places.

Chain of platelet activating factor (P25105 whole entry): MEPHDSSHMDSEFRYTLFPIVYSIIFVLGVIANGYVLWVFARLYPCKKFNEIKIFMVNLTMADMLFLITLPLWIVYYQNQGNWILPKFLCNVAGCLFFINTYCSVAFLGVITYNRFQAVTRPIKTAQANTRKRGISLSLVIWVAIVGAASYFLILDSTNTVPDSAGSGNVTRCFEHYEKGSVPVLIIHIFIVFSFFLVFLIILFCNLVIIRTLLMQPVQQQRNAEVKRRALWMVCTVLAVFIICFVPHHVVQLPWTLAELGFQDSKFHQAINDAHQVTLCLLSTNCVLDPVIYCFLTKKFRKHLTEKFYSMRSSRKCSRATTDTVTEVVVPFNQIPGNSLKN

Turning to `CC1C(=O)OC2CC34C5CC(C(C)(C)C)C36C(=O)C(=O)OC6OC4(C(=O)O5)C21O` (centres unmarked) [10-keto analog], the 50% inhibitory concentration (IC50) in series [1] (read-out: anti-PAF IC50) was 3900 nM.
Turning to `CC(C)(C)[C@]1(O)CC2OC(=O)CC23C(=O)OC2OC(=O)[C@H](O)C231` (some centres unmarked) [BB, bilobalide], the “rescue of LTP (L-LTP) impairment in slices treated with Aβ” value (“rescue of LTP (L-LTP) impairment” below) in series [2] is “does not rescue L-LTP impairment”.
As to `C[C@@H]1C(=O)O[C@H]2CC34C5C[C@@H](C(C)(C)C)C36C(OC(=O)[C@@H]6O)OC4(C(=O)O5)[C@]21O` (some centres unmarked) [Ginkgolide A], the “rescue of LTP (L-LTP) impairment” value in series [2] is reported as “rescued the LTP to the same values recorded in control untreated slices”. Moreover, the IC50 in series [3] was 1900 nM. The “number of viable cells (control = 100%)” value in series [4] (24 h) is listed as 50.5±5.7%. In addition, in series [4] (ginkgolide 1 μM, 24 h), the “consistently able to prevent amyloid beta-induced cell death” value is listed as “not”.
Consider `C[C@@H]1C(=O)O[C@H]2CC34C5OC(=O)C3(OC3OC(=O)[C@H](O)C34[C@H](C(C)(C)C)[C@H]5O)[C@]21O` (some centres unmarked) [Ginkgolide J], for which the “rescue of LTP (L-LTP) impairment” value in series [2] is listed as “rescued the LTP to the same values recorded in control untreated slices”. Moreover, in series [4], the “consistently able to prevent amyloid beta-induced cell death” value is on record as “consistently able to prevent cell death”, the “more cells than the other treatments” value is recorded as “approximately 40%” and the “prevention of amyloid beta toxicity” value was “appeared to completely prevent amyloid beta toxicity”. Moreover, in series [4] (24 h), the “number of viable cells (control = 100%)” value worked out at 70.7±1.4%.
Consider Ginkgolide B [GB], for which the “rescue of LTP (L-LTP) impairment” value in series [2] was “does not rescue L-LTP impairment”. For the same compound, the concentration for half-maximal inhibition (IC50) in series [1] (read-out: anti-PAF activity IC50) was 600 nM.
For Ginkgolide C [GC], the “rescue of LTP (L-LTP) impairment” value in series [2] is listed as “does not rescue L-LTP impairment”.
